# Data as given in US20250170212A1, “COMPOSITIONS AND METHODS OF TREATING AMYOTROPHIC LATERAL SCLEROSIS (ALS) AND RELATED DISORDERS” (BIOINCEPT, LLC, priority 2022, published 2025).
# System: IL-1α
# Experiment: Serum cytokine analysis, multiplex ELISA
# Format: in vivo, mouse
# Settings: serum collected weekly; compared to Injury and mGRPs groups
# Experimental: Samples were collected every week, starting from day of graft transplantation (day 0), 100 μl of blood from mouse tail. Blood was stored 1 h in room temperature, and overnight in +4° C. Serum was gently aspirated, and centrifuged 10 min with 2000 RPM to separate blood morphotic bodies. Purified serum was stored in −80° C. until further analysis. Multiplex ELISA 23-cytokine kit (M60009RDPD) was obtained from Bio-Rad (Bio-Plex Pro Mouse Cytokine 23-plex Assay #M60009RDPD, Hercules, Bio-Rad, CA, USA, RRID: AB_2857368) and performed according to instructions. 50 μl of diluted in sample diluent, 1:4 serum samples and diluted at range 1:10-1:20. Measurement standards were used, diluted 9 times according to the protocol and added at template plate. Vortexed beads were added to the assay 96-well plate. Plate was again washed 3 times with wash buffer, then from template plate, 50 μl of samples, standards and blank were transferred to measurement plate with multichannel pipette. Plate was sealed with tape and incubated 30 min. After this time, plate was washed 3 times. 25 μl of detection antibody was added to the wells with multichannel pipette. Plate was sealed and incubated for 30 min. and next washed 3 times using wash buffer. […] Beads were resuspended with 125 μl of assay buffer and analysis was performed with Bio Plex 200 reader.
# All quantifications were performed including the manual cell counts in a blinded manner. The NeuN and Ibal were counted as positive cells in the ROI (see above) as previously reported. The number of cells was determined by unbiased counting of positive cells. […] Differences between groups were analyzed using a repeated measure ANOVA model with a fixed effect for the group, of the time and a random intercept for the mouse. In a second, more explorative, approach for each group the time when the physical activity was first measured below a certain threshold was determined. […] The clinically relevant threshold was determined according to previous observations and defined as value 0.9 for the Wire Test. […] The statistical significance at p<0.05 was then determined.
compound,measurement,value
"C=CC[C@@H]1/C=C(\C)C[C@H](C)C[C@H](OC)[C@H]2O[C@@](O)(C(=O)C(=O)N3CCCC[C@H]3C(=O)O[C@H](/C(C)=C/[C@@H]3CC[C@@H](O)[C@H](OC)C3)[C@H](C)[C@@H](O)CC1=O)[C@H](C)C[C@@H]2OC [Tac, Tacrolimus, reference compound]",peripheral IL-1α cytokine peak,decreased IL-1α peak significantly
